≈ marks a conversion by molar mass, not a printed value. Read-outs that look alike come from different tables or passages of the source.
How the values were obtained:
[1] = test system: P. aeruginosa PA259-96196; format: cell-based, Pseudomonas aeruginosa; settings: for MICUTBLP: UTBLP alone
Protocol: (§1) The synergy of the UTBLPs with various antibiotics was assessed using checkerboard assay as previously described. Briefly, the combination of antibiotic and OMP at varying concentrations were incubated with bacterial inoculum (5 × 10^5 CFU/mL final concentration) at 37 °C for 18 h. Growth in the form of turbidity was confirmed using an EMax Plus microplate reader (Molecular Devices, Union City, CA, USA) at 590 nm. Fractional inhibitory concentration index (FICI) was used to evaluate the interaction between the antibiotic and the OMP. FICI is the sum of the FIC of the antibiotic and the FIC of the OMP. The FIC value is calculated by dividing the MIC of the agents in combination by the MIC of the agent alone. FICI ≤ 0.5 is synergistic, 0.5 < x ≤ 4 is additive, and >4 is antagonistic.

[2] = test system: P. aeruginosa PA262-101856; format: cell-based, Pseudomonas aeruginosa; settings: for MICUTBLP: UTBLP alone
Protocol: as §1

P. aeruginosa PAO1 [3] = format: cell-based, Pseudomonas aeruginosa; settings: for MICUTBLP: UTBLP alone
Protocol: as §1

A. baumannii AB027 [4] = format: cell-based, Acinetobacter baumannii; settings: for MICUTBLP: UTBLP alone
Protocol: as §1

A. baumannii 92247 = format: cell-based, Acinetobacter baumannii; settings: for MICUTBLP: UTBLP alone
Protocol: as §1

A. baumannii ATCC 17978 [5] = format: cell-based, Acinetobacter baumannii; settings: for MICUTBLP: UTBLP alone
Protocol: as §1

E. coli 94474 [6] = format: cell-based, Escherichia coli; settings: for MICUTBLP: UTBLP alone
Protocol: as §1

A. baumannii ATCC 17978 [7] = format: cell-based, Acinetobacter baumannii; settings: ATCC 17978, 18 h
Protocol: (§2) The in vitro antibacterial activity of the UTBLPs was assessed against wild-type and clinically isolated bacterial strains. To obtain the MIC of the compounds, the microbroth dilution susceptibility assay was performed according to the Clinical and Laboratory Standards Institute (CLSI, Wayne, PA, USA) guidelines and as previously described. Briefly, the compounds at varying concentrations were incubated with bacterial inoculum (5 × 10^5 CFU/mL final concentration) at 37 °C for 18 h. Growth in the form of turbidity was confirmed using an EMax Plus microplate reader (Molecular Devices, San Jose, CA, USA) at 590 nm.

P. aeruginosa PAO1 [8] = format: cell-based, Pseudomonas aeruginosa; settings: PAO1, 18 h
Protocol: as §2

A. baumannii AB027 [9] = assay: microbe, parasite or virus in culture; format: cell-based, Acinetobacter baumannii; settings: AB027, 18 h
Protocol: as §2

A. baumannii AB92247 = assay: microbe, parasite or virus in culture; format: cell-based, Acinetobacter baumannii; settings: AB92247, 18 h
Protocol: as §2

E. coli 94393 = assay: microbe, parasite or virus in culture; format: cell-based, Escherichia coli; settings: 94393, 18 h
Protocol: as §2

E. coli 94474 [10] = assay: microbe, parasite or virus in culture; format: cell-based, Escherichia coli; settings: 94474, 18 h
Protocol: as §2

E. faecalis ATCC 29212 = format: cell-based, Enterococcus faecalis
Protocol: as §1

E. cloacae 118564 = assay: microbe, parasite or virus in culture; format: cell-based, Enterobacter cloacae; settings: 118564, 18 h
Protocol: as §2

MRSE 61589 = format: cell-based, Staphylococcus epidermidis
Protocol: as §1

MSSE 81388 = format: cell-based, Staphylococcus epidermidis
Protocol: as §1

K. pneumoniae 113250 = assay: microbe, parasite or virus in culture; format: cell-based, Klebsiella pneumoniae; settings: 113250, 18 h
Protocol: as §2

[11] = UTBLP in combination with novobiocin
[12] = UTBLP in combination with rifampicin
[13] = novobiocin in combination with the UTBLP
[14] = rifampicin in combination with the UTBLP
[15] = UTBLP in combination with chloramphenicol
[16] = UTBLP in combination with niclosamide
[17] = chloramphenicol in combination with the UTBLP
[18] = niclosamide in combination with the UTBLP
[19] = UTBLP alone, plate with chloramphenicol

MICUTBLP ([1]; plate with novobiocin): > 128 µg/mL
MICUTBLP ([1]; plate with rifampicin): > 128 µg/mL
MICUTBLP [MICcombo] [1, 11]: 8 µg/mL
MICUTBLP [MICcombo] [1, 12]: 16 µg/mL
MICantibiotic [MICcombo] [1, 13]: 128 µg/mL
MICantibiotic [MICcombo] [1, 14]: 0.5 µg/mL
MICUTBLP ([2]; plate with novobiocin): 128 µg/mL
MICUTBLP ([2]; plate with rifampicin): 128 µg/mL
MICUTBLP [MICcombo] [2, 11]: 16 µg/mL
MICUTBLP [MICcombo] [2, 12]: 16 µg/mL
MICantibiotic [MICcombo] [2, 13]: 64 µg/mL
MICantibiotic [MICcombo] [2, 14]: 256 µg/mL
MICUTBLP (P. aeruginosa PAO1 [3]; plate with chloramphenicol): > 128 µg/mL
MICUTBLP (P. aeruginosa PAO1 [3]; plate with niclosamide): > 128 µg/mL
MICUTBLP (P. aeruginosa PAO1 [3]; plate with novobiocin): > 128 µg/mL
MICUTBLP (P. aeruginosa PAO1 [3]; plate with rifampicin): > 128 µg/mL
MICUTBLP [MICcombo] (P. aeruginosa PAO1 [3]; [15]): 2 µg/mL
MICUTBLP [MICcombo] (P. aeruginosa PAO1 [3]; [16]): 0.25 µg/mL
MICUTBLP [MICcombo] (P. aeruginosa PAO1 [3]; [11]): 16 µg/mL
MICUTBLP [MICcombo] (P. aeruginosa PAO1 [3]; [12]): 4 µg/mL
MICantibiotic [MICcombo] (P. aeruginosa PAO1 [3]; [17]): 4 µg/mL
MICantibiotic [MICcombo] (P. aeruginosa PAO1 [3]; [18]): 1024 µg/mL
MICantibiotic [MICcombo] (P. aeruginosa PAO1 [3]; [13]): 32 µg/mL
MICantibiotic [MICcombo] (P. aeruginosa PAO1 [3]; [14]): 2 µg/mL
MICUTBLP (A. baumannii AB027 [4]; plate with novobiocin): 128 µg/mL
MICUTBLP (A. baumannii AB027 [4]; plate with rifampicin): 128 µg/mL
MICUTBLP [MICcombo] (A. baumannii AB027 [4]; [11]): 8 µg/mL
MICUTBLP [MICcombo] (A. baumannii AB027 [4]; [12]): 8 µg/mL
MICantibiotic [MICcombo] (A. baumannii AB027 [4]; [13]): 0.125 µg/mL
MICantibiotic [MICcombo] (A. baumannii AB027 [4]; [14]): 0.063 µg/mL
MICUTBLP (A. baumannii 92247; plate with novobiocin): 64 µg/mL
MICUTBLP (A. baumannii 92247; plate with rifampicin): 64 µg/mL
MICUTBLP [MICcombo] (A. baumannii 92247; [11]): 4 µg/mL
MICUTBLP [MICcombo] (A. baumannii 92247; [12]): 4 µg/mL
MICantibiotic [MICcombo] (A. baumannii 92247; [13]): 0.25 µg/mL
MICantibiotic [MICcombo] (A. baumannii 92247; [14]): 0.125 µg/mL
MICUTBLP (A. baumannii ATCC 17978 [5]; plate with chloramphenicol): > 128 µg/mL
MICUTBLP (A. baumannii ATCC 17978 [5]; plate with niclosamide): > 128 µg/mL
MICUTBLP (A. baumannii ATCC 17978 [5]; plate with novobiocin): > 128 µg/mL
MICUTBLP (A. baumannii ATCC 17978 [5]; plate with rifampicin): > 128 µg/mL
MICUTBLP [MICcombo] (A. baumannii ATCC 17978 [5]; [15]): 32 µg/mL
MICUTBLP [MICcombo] (A. baumannii ATCC 17978 [5]; [16]): 8 µg/mL
MICUTBLP [MICcombo] (A. baumannii ATCC 17978 [5]; [11]): 16 µg/mL
MICUTBLP [MICcombo] (A. baumannii ATCC 17978 [5]; [12]): 8 µg/mL
MICantibiotic [MICcombo] (A. baumannii ATCC 17978 [5]; [17]): 32 µg/mL
MICantibiotic [MICcombo] (A. baumannii ATCC 17978 [5]; [18]): 0.5 µg/mL
MICantibiotic [MICcombo] (A. baumannii ATCC 17978 [5]; [13]): 0.125 µg/mL
MICantibiotic [MICcombo] (A. baumannii ATCC 17978 [5]; [14]): 0.125 µg/mL
MICUTBLP (E. coli 94474 [6]; plate with novobiocin): > 128 µg/mL
MICUTBLP (E. coli 94474 [6]; plate with rifampicin): > 128 µg/mL
MICUTBLP [MICcombo] (E. coli 94474 [6]; [11]): 8 µg/mL
MICUTBLP [MICcombo] (E. coli 94474 [6]; [12]): 8 µg/mL
MICantibiotic [MICcombo] (E. coli 94474 [6]; [13]): 4 µg/mL
MICantibiotic [MICcombo] (E. coli 94474 [6]; [14]): 0.125 µg/mL
MIC (A. baumannii ATCC 17978 [7]): >128 µg/mL
MIC (P. aeruginosa PAO1 [8]): >128 µg/mL
MIC (A. baumannii AB027 [9]): 128 µg/mL (≈ 155 µM)
MIC (A. baumannii AB92247): 64 µg/mL (≈ 77.6 µM)
MIC (E. coli 94393): > 128 µg/mL
MIC (E. coli 94474 [10]): > 128 µg/mL
MICUTBLP (E. faecalis ATCC 29212; [19]): 128 µg/mL
MICUTBLP [MICcombo] (E. faecalis ATCC 29212; [15]): 16 µg/mL
MICchloramphenicol [MICcombo] (E. faecalis ATCC 29212; [17]): 2 µg/mL
MIC (E. cloacae 118564): > 128 µg/mL
MICUTBLP (MRSE 61589; [19]): 32 µg/mL
MICUTBLP [MICcombo] (MRSE 61589; [15]): 16 µg/mL
MICchloramphenicol [MICcombo] (MRSE 61589; [17]): 2 µg/mL
MICUTBLP (MSSE 81388; [19]): 32 µg/mL
MICUTBLP [MICcombo] (MSSE 81388; [15]): 0.25 µg/mL
MICchloramphenicol [MICcombo] (MSSE 81388; [17]): 4 µg/mL
MIC (K. pneumoniae 113250): > 128 µg/mL
SMILES: CCCCCCCC(=O)N[C@@H](CCCCN)C(=O)NCCCN(CCCNC(=O)[C@H](CCCCN)NC(=O)CCCCCCC)CC(=O)N[C@@H](CCCCN)C(N)=O [UTBLP 1]
Interpretation ([1]; UTBLP + novobiocin): Synergy (FICI ≤ 0.5 is synergistic)
Interpretation ([1]; UTBLP + rifampicin): Synergy (FICI ≤ 0.5 is synergistic)
Interpretation ([2]; UTBLP + novobiocin): Synergy (FICI ≤ 0.5 is synergistic)
Interpretation ([2]; UTBLP + rifampicin): Synergy (FICI ≤ 0.5 is synergistic)
Interpretation (P. aeruginosa PAO1 [3]; UTBLP + chloramphenicol): Synergy (FICI ≤ 0.5 is synergistic)
Interpretation (P. aeruginosa PAO1 [3]; UTBLP + niclosamide): Additive (0.5 < x ≤ 4 is additive)
Interpretation (P. aeruginosa PAO1 [3]; UTBLP + novobiocin): Synergy (FICI ≤ 0.5 is synergistic)
Interpretation (P. aeruginosa PAO1 [3]; UTBLP + rifampicin): Synergy (FICI ≤ 0.5 is synergistic)
Interpretation (A. baumannii AB027 [4]; UTBLP + novobiocin): Synergy (FICI ≤ 0.5 is synergistic)
Interpretation (A. baumannii AB027 [4]; UTBLP + rifampicin): Synergy (FICI ≤ 0.5 is synergistic)
Interpretation (A. baumannii 92247; UTBLP + novobiocin): Synergy (FICI ≤ 0.5 is synergistic)
Interpretation (A. baumannii 92247; UTBLP + rifampicin): Synergy (FICI ≤ 0.5 is synergistic)
Interpretation (A. baumannii ATCC 17978 [5]; UTBLP + chloramphenicol): Additive (0.5 < x ≤ 4 is additive)
Interpretation (A. baumannii ATCC 17978 [5]; UTBLP + niclosamide): Synergy (FICI ≤ 0.5 is synergistic)
Interpretation (A. baumannii ATCC 17978 [5]; UTBLP + novobiocin): Synergy (FICI ≤ 0.5 is synergistic)
Interpretation (A. baumannii ATCC 17978 [5]; UTBLP + rifampicin): Synergy (FICI ≤ 0.5 is synergistic)
Interpretation (E. coli 94474 [6]; UTBLP + novobiocin): Synergy (FICI ≤ 0.5 is synergistic)
Interpretation (E. coli 94474 [6]; UTBLP + rifampicin): Synergy (FICI ≤ 0.5 is synergistic)
Interpretation (E. faecalis ATCC 29212; UTBLP + chloramphenicol): Additive (0.5 < x ≤ 4 is additive)
Interpretation (MRSE 61589; UTBLP + chloramphenicol): Additive (0.5 < x ≤ 4 is additive)
Interpretation (MSSE 81388; UTBLP + chloramphenicol): Additive (0.5 < x ≤ 4 is additive)

From paper PMC8963254, “Effects of Lysine N-ζ-Methylation in Ultrashort Tetrabasic Lipopeptides (UTBLPs) on the Potentiation of Rifampicin, Novobiocin, and Niclosamide in Gram-Negative Bacteria” (Antibiotics, 2022)
